Measurements taken from ChEMBL document CHEMBL1201862, “PubChem BioAssay data set” (2004).
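Protocol summary: plate cells (96-well), add compound at 5 concentrations, incubate 48 h, interpolate endpoints linearly. GI50 = concentration required for 50% inhibition of growth.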 Calls of active or inactive are those of the source. Rule as the data show it: active = GI50 up to about 1.1 µM and inactive = higher.

Tests used:
Assay in all cases: NCI anticancer screen, dose series, 48 h
[1] = system: ACHN
[2] = system: SN12C
[3] = system: SF-268
[4] = system: NCI-H23
[5] = system: OVCAR-8
[6] = system: NCI/ADR-RES
[7] = system: SK-OV-3
[8] = system: MCF7
[9] = system: MDA-MB-231
[10] = system: NCI-H522
[11] = system: HOP-62
[12] = system: SK-MEL-28
[13] = system: RPMI-8226
[14] = system: SW-620
[15] = system: UACC-62
[16] = system: SF-539
[17] = system: SR
[18] = system: A549
[19] = system: K562
[20] = system: SNB-75

Row | SMILES | GI50 [1] | GI50 [2] | GI50 [3] | GI50 [4] | GI50 [5] | GI50 [6] | GI50 [7] | GI50 [8] | GI50 [9] | GI50 [10] | GI50 [11] | GI50 [12] | GI50 [13] | GI50 [14] | GI50 [15] | GI50 [16] | GI50 [17] | GI50 [18] | GI50 [19] | GI50 [20]
1 | CCCCCCCCCCCCCCCCOCC(O)CO (stereo unspecified) | 18.8 µM (inactive) | 19.2 µM (inactive) | 17.1 µM (inactive) | 17.9 µM (inactive) | 17.9 µM (inactive) | 16.7 µM (inactive) | 16.6 µM (inactive) | 22.2 µM (inactive) | 18.5 µM (inactive) | 16.8 µM (inactive) | 19.6 µM (inactive) | 18.6 µM (inactive) | 14.8 µM (inactive) | 20.3 µM (inactive) | 17 µM (inactive) | 16.3 µM (inactive) | 10.3 µM (inactive) | 20.1 µM (inactive) | – | –
2 | Cc1c(CNc2ccc(C(=O)NC(CCCNC(=O)c3ccccc3C(=O)O)C(=O)O)cc2)cnc2nc(N)nc(N)c12 (stereo unspecified) | 0.000393 µM (active) | 0.00466 µM (active) | 0.000356 µM (active) | 0.00151 µM (active) | 0.000324 µM (active) | 0.000298 µM (active) | 0.00644 µM (active) | 0.0007 µM (active) | 3.23 µM (inactive) | 0.00151 µM (active) | 0.387 µM (active) | 0.192 µM (active) | 0.000834 µM (active) | < 0.0001 µM (active) | 0.000396 µM (active) | 0.000461 µM (active) | 0.000452 µM (active) | 0.000419 µM (active) | < 0.0001 µM (active) | 0.00222 µM (active)
3 | CCN(CC)C(=S)N/N=C(\C)c1cccc(C)n1 | 0.0184 µM (active) | 0.292 µM (active) | 0.0593 µM (active) | – | 0.287 µM (active) | < 0.01 µM (active) | 1.57 µM (inactive) | < 0.01 µM (active) | < 0.01 µM (active) | 0.0276 µM (active) | 0.102 µM (active) | 0.308 µM (active) | < 0.01 µM (active) | – | 0.259 µM (active) | 0.239 µM (active) | < 0.0182 µM (active) | 0.259 µM (active) | < 0.01 µM (active) | 4.11 µM (inactive)
4 | CC1C/C(=C\c2ccc(O)c(O)c2)C(=O)/C(=C/c2ccc(O)c(O)c2)C1 (stereo unspecified) | 8.71 µM (inactive) | 5.48 µM (inactive) | 6.12 µM (inactive) | 4.14 µM (inactive) | 9.04 µM (inactive) | 18.5 µM (inactive) | 18.1 µM (inactive) | 3.11 µM (inactive) | 11.3 µM (inactive) | 1.81 µM (inactive) | 11.3 µM (inactive) | 7.69 µM (inactive) | – | 11.6 µM (inactive) | 3.17 µM (inactive) | 3.25 µM (inactive) | 3.82 µM (inactive) | 13.4 µM (inactive) | 5.83 µM (inactive) | 4.73 µM (inactive)
5 | S=C(NCc1ccccn1)N/N=C/c1ccccn1 | < 0.01 µM (active) | 0.0724 µM (active) | 0.0214 µM (active) | < 0.01 µM (active) | < 0.032 µM (active) | < 0.01 µM (active) | – | < 0.01 µM (active) | < 0.01 µM (active) | < 0.01 µM (active) | < 0.01 µM (active) | 0.518 µM (active) | < 0.01 µM (active) | < 0.01 µM (active) | < 0.0181 µM (active) | < 0.0159 µM (active) | < 0.01 µM (active) | < 0.0188 µM (active) | < 0.01 µM (active) | 3.05 µM (inactive)
6 | CC(=O)c1cc(I)c(O)c2ncccc12 | 2.43 µM (inactive) | 3.69 µM (inactive) | 3.22 µM (inactive) | 3.13 µM (inactive) | 2.92 µM (inactive) | 4.35 µM (inactive) | 4.27 µM (inactive) | 4.73 µM (inactive) | 2.55 µM (inactive) | 3.6 µM (inactive) | 4.36 µM (inactive) | 4.09 µM (inactive) | 2.67 µM (inactive) | 4.17 µM (inactive) | 3.3 µM (inactive) | 3.05 µM (inactive) | 2.91 µM (inactive) | 4.34 µM (inactive) | 7.55 µM (inactive) | –
7 | O=C(Cn1cc(Br)c(=O)[nH]c1=O)c1ccc(-c2ccccc2)cc1 | 18.6 µM (inactive) | 16.1 µM (inactive) | 4.71 µM (inactive) | 16.4 µM (inactive) | 6.76 µM (inactive) | 13 µM (inactive) | > 58.6 µM (inactive) | > 17.5 µM (inactive) | 12.2 µM (inactive) | 5.57 µM (inactive) | 5.12 µM (inactive) | > 14.3 µM (inactive) | 15.3 µM (inactive) | > 17.5 µM (inactive) | > 100 µM (inactive) | 8.41 µM (inactive) | > 17 µM (inactive) | > 17.4 µM (inactive) | > 11.2 µM (inactive) | 1.85 µM (inactive)
8 | CCC(=O)ONC(=O)Cn1ccc([N+](=O)[O-])n1 | > 100 µM (inactive) | > 100 µM (inactive) | > 100 µM (inactive) | > 100 µM (inactive) | > 100 µM (inactive) | > 100 µM (inactive) | > 100 µM (inactive) | > 100 µM (inactive) | > 100 µM (inactive) | > 100 µM (inactive) | > 100 µM (inactive) | > 100 µM (inactive) | > 100 µM (inactive) | > 100 µM (inactive) | > 100 µM (inactive) | > 100 µM (inactive) | > 100 µM (inactive) | > 100 µM (inactive) | > 100 µM (inactive) | > 100 µM (inactive)
9 | Cc1cc(-n2c(/C=C/c3ccc(Cl)cc3)nc3cc(Cl)ccc3c2=O)on1 | 7.57 µM (inactive) | 20.5 µM (inactive) | 15.7 µM (inactive) | 41.4 µM (inactive) | 10.6 µM (inactive) | 14.4 µM (inactive) | 14.9 µM (inactive) | 18.9 µM (inactive) | 15.6 µM (inactive) | 23.2 µM (inactive) | 7.62 µM (inactive) | > 50 µM (inactive) | – | 48 µM (inactive) | > 50 µM (inactive) | 25.6 µM (inactive) | 0.005 µM (active) | 14.1 µM (inactive) | > 50 µM (inactive) | –
10 | Cc1ccc2c(c1)/C(=N/Nc1ccccc1[N+](=O)[O-])C(=O)N2 | – | 3.82 µM (inactive) | 3.4 µM (inactive) | 7.76 µM (inactive) | 3.45 µM (inactive) | 3.72 µM (inactive) | 4.68 µM (inactive) | 12 µM (inactive) | 1.61 µM (inactive) | 2.31 µM (inactive) | 2.82 µM (inactive) | > 100 µM (inactive) | 6.73 µM (inactive) | 35.3 µM (inactive) | 35.5 µM (inactive) | 2.11 µM (inactive) | 4.06 µM (inactive) | 27.9 µM (inactive) | 27.9 µM (inactive) | 5.33 µM (inactive)
11 | CC1CCC2(CC1)NC1=C(CC(C)CC1)C1=C2CC(C)CC1 (stereo unspecified) | 23.3 µM (inactive) | – | – | 20.8 µM (inactive) | 23 µM (inactive) | > 10 µM (inactive) | 38.8 µM (inactive) | 17.6 µM (inactive) | 20.5 µM (inactive) | 19.3 µM (inactive) | – | 17.7 µM (inactive) | 23.3 µM (inactive) | 18.9 µM (inactive) | > 10 µM (inactive) | 22.1 µM (inactive) | 21.8 µM (inactive) | 36.8 µM (inactive) | 17.2 µM (inactive) | 19.1 µM (inactive)
12 | COC(=O)Cc1cc(O)c(C/C=C(\C)CC/C=C(\C)C(O)C(=O)C=C(C)C)cc1O (stereo unspecified) | 24.9 µM (inactive) | 22.4 µM (inactive) | 19.7 µM (inactive) | 39.4 µM (inactive) | 23.2 µM (inactive) | 22.5 µM (inactive) | 29.7 µM (inactive) | 32.1 µM (inactive) | 34.7 µM (inactive) | 21.1 µM (inactive) | 19.6 µM (inactive) | – | 26.7 µM (inactive) | 31.3 µM (inactive) | 19.9 µM (inactive) | 20.3 µM (inactive) | 15.6 µM (inactive) | 25.6 µM (inactive) | 15.6 µM (inactive) | 18.2 µM (inactive)
13 | CN1COCc2c1ccc1cc3ccc4c(c3nc21)COCN4S(C)(=O)=O | > 100 µM (inactive) | > 100 µM (inactive) | > 100 µM (inactive) | > 100 µM (inactive) | > 100 µM (inactive) | > 100 µM (inactive) | > 100 µM (inactive) | 0.202 µM (active) | > 100 µM (inactive) | > 100 µM (inactive) | > 100 µM (inactive) | > 100 µM (inactive) | – | > 100 µM (inactive) | > 100 µM (inactive) | – | 3.73 µM (inactive) | > 100 µM (inactive) | > 100 µM (inactive) | 20 µM (inactive)
14 | COc1ccc(NC2=NCCO2)c2ccccc12 | > 10 µM (inactive) | > 10 µM (inactive) | > 10 µM (inactive) | – | > 10 µM (inactive) | > 10 µM (inactive) | > 10 µM (inactive) | > 10 µM (inactive) | > 10 µM (inactive) | > 10 µM (inactive) | > 10 µM (inactive) | > 10 µM (inactive) | > 10 µM (inactive) | > 10 µM (inactive) | > 10 µM (inactive) | > 10 µM (inactive) | > 10 µM (inactive) | > 10 µM (inactive) | > 10 µM (inactive) | > 10 µM (inactive)
15 | O=C(O)Cc1cccc2c(=O)c3cccc([N+](=O)[O-])c3[nH]c12 | > 100 µM (inactive) | 99.1 µM (inactive) | – | > 100 µM (inactive) | > 100 µM (inactive) | > 100 µM (inactive) | > 100 µM (inactive) | 80.9 µM (inactive) | > 100 µM (inactive) | 63.2 µM (inactive) | 31.4 µM (inactive) | – | 12.9 µM (inactive) | > 100 µM (inactive) | 25 µM (inactive) | 29.7 µM (inactive) | 21.4 µM (inactive) | > 100 µM (inactive) | > 100 µM (inactive) | 24.2 µM (inactive)
